Reference: patent publication US6469052B2, “Compounds for the photodecontamination of pathogens in blood” (Cerus Corporation, priority 1993, dated 2002)

Columns and labels:
[1] = system: HIV-1; settings: concentrations of 64 μM of compound or higher
Protocol: Pathogen inactivation efficiency of several compounds of the present invention was evaluated by examining the ability of the compounds to inactivate cell-free virus (HIV). Inactivation of cell-free HIV was performed as follows.
As in the R17 assay, small aliquots of the compounds listed in TABLES 10 and 11, below, at the concentrations listed in the table, were added to stock HIV-1 to a total of 0.5 mL. The stock HIV (10^5-10^7 plaque forming units/mL) was in DMEM/15% FBS. […] Controls included HIV-1 stock only, HIV-1 plus UVA only, and HIV-1 plus the highest concentration of each psoralen tested, with no UVA. Post irradiation, all samples were stores frozen at −70° C. until assayed for infectivity by a microtiter plaque assay. Aliquots for measurement of residual HIV infectivity in the samples treated with a compound of the present invention were withdrawn and cultured.
Residual HIV infectivity was assayed using an MT-2 infectivity assay. […] After 24 to 48 hours, the red fluorescence-stained microplaques were visualized by placing the plates on an 8,000 μW/cm^2 304 nm UV light box (Fotodyne, Inc., New Berlin, Wis.). The plaques were counted at a magnification of ×20 to ×25 through a stereomicroscope.

[2] = system: GMP-140 (p-selectin) on platelets; assay: Platelet function: GMP-140 expression (flow cytometry, CD62); type: cell-based, human; settings: 100 μM compound, 5 Joules/cm^2, 5 days storage
Protocol: (§1) To measure the effects of the present compounds and methods of decontamination on platelet function using these four indicators, four samples were prepared for each compound tested, two control samples and two containing compound. Three units of human platelets were obtained from the Sacramento Blood Center, Sacramento, Calif. These were each transferred under sterile conditions to 50 ml centrifuge tubes, then aliquots of each unit were transferred into a second set of 50 ml sterile centrifuge tubes. To each centrifuge tube containing platelet concentrate (PC), an aliquot of compound stock was added to reach a final concentration of 100 μM of compound. […] The samples were pipetted gently up and down to mix. Then aliquots (either 3 ml or 8 ml) of each sample was transferred to two sterile Teflon™ Medi-bags™ (American Fluoroseal Co., Silver Springs, Md.) (presently owned by The West Company, Lionville, Pa.). Samples were treated in one of two different sized bags, having either 3 ml or 8 ml capacity. […] For each compound tested, two control samples without compound were prepared by again removing aliquots of platelet concentrate (17 ml if using an 8 ml bag, […] if using a 3 ml bag) from the same one of the first set of 50 ml centrifuge tubes from which the compound sample was drawn, and dividing into Medibags, as before. One of each pair of Medibags containing a compound, and one of each pair of control Medibags, were illuminated for 5 Joules/cm^2 on the device described in Example 1, above. Then all experimental and control Medibags were placed on a platelet shaker for storage for 5 days. The same experiments were repeated several times to obtain more statistically meaningful data, as represented by “n”, the number of data points represented, in the graphs of FIGS. 21-24, discussed below.

[3] = system: Salmonella typhimurium TA1537; assay: Ames assay (dark mutagenicity), strain TA1537; settings: TA1537 in the presence of S9
From the text: The second property that is important in testing a compound for use in methods of the present invention is mutagenicity. The most widely used mutagen/carcinogen screening assay is the Ames test. This assay is described by D. M. Maron and B. N. Ames in Mutation Research 113: 173 ( 1983) and a specific screen is described in detail in Example 17, below. The Ames test utilizes several unique strains of Salmonella typhimurium that are histidine- dependent for growth and that lack the usual DNA repair enzymes. The frequency of normal mutations that render the bacteria independent of histidine (i.e., the frequency of spontaneous revertants) is low. The test allows one to evaluate the impact of a compound on this revertant frequency.
In this example the compounds of the present invention are tested for their dark mutagenicity using an Ames assay. The procedures used for the Salmonella mutagenicity test as described in detail by Maron and Ames were followed exactly. Maron, D. M. and B. N. Ames, Mutation Research 113: 173 ( 1983). A brief description for each procedure is given here. The tester strains TA97a, TA98, TA100, TA102, TA1537 and TA1538 were obtained from Dr. Ames. TA97a, TA98, TA1537 and TA1538 are frameshift tester strains. TA100 and TA102 are base-substitution tester strains. Upon receipt each strain was cultured under a variety of conditions to confirm the genotypes specific to the strains.
The first tests done with the strains were to determine the range of spontaneous reversion for each of the strains. With each mutagenicity experiment the spontaneous reversion of the tester strains to histidine independence was measured and expressed as the number of spontaneous revertants per plate. This served as the background controls.
For all experiments, the pre-incubation procedure was used. In this procedure one vial of each tester strain was thawed and 20 μL of this culture was added to 6 mL of Oxoid Nutrient Broth #2. This solution was allowed to shake for 10 hours at 37° C. In the pre-incubation procedure, 0.1 mL of this overnight culture was added to each of the required number of sterile test tubes. To half of the tubes 0.5 mL of a 10% S-9 solution containing Aroclor 1254 induced rat liver extract (Molecular Toxicology Inc., Annapolis, Md.), and MgCl2, KCl, glucose-6-phosphate, NADP, and sodium phosphate buffer (Sigma, St. Louis, Mo.) were added. To the other half of the tubes 0.5 mL of 0.2M sodium phospate buffer, pH 7.4, was used in place of the S-9 mixture (the -S9 samples). Finally 0.1 mL of the test solution containing either 0, 0.1, 0.5, 1, 5, 10, 50, 100, 250, or 500 μg/mL of the test compound was added. The 0.7 mL mixture was vortexed and then pre-incubated while shaking for 20 minutes at 37° C. After shaking, 2 mL of molten top agar supplemented with histidine and biotin were added to the 0.7 mL mixture and immediately poured onto a minimal glucose agar plate (volume of base agar was 20 mL). The top agar was allowed 30 minutes to solidify and then the plates were inverted and incubated for 44 hours at 37° C. After incubation the number of revertant colonies on each plate were counted. […] (“n” represents the number of replicates performed for each data point.)
Maron and Ames (1983) describe the conflicting views with regard to the statisical treatment of data generated from the test.

[4] = system: human platelets; settings: 100 μM compound
Protocol: as §1
A Sysmex cell counter was used to measure platelet count in the platelet samples. Samples were diluted 1:3 in blood bank saline.

Row | SMILES | HIV inactivation activity compared with AMT [1] | GMP-140 expression: sample treated with light and psoralen (PCD) versus day 5 untreated control (D5) [2] | concentration showing a response [3] | platelet count, Day 5 treated sample versus Day 5 control ([4]; 5 Joules/cm^2) | platelet count compared with samples treated with light alone ([4]; 5 Joules/cm^2, 5 days storage)
1 | Cc1oc2c(C)c3oc(=O)cc(C)c3cc2c1COCCN [Compound 2, 4′-(4-amino-2-oxa)butyl-4,5′,8-trimethylpsoralen] | significantly more active than AMT | little or no difference |  |  | 
2 | Cc1oc2c(C)c3oc(=O)cc(C)c3cc2c1CNCCCCN [Compound 6, 4′-(6-amino-2-aza)hexyl-4,5′,8-trimethylpsoralen] |  | little or no difference | 50 μg/plate | counts equivalent to the 5 day control | higher platelet count than samples treated with light alone
